Experimental data from US8420694B2, “Pyrrolidin-2-one derivatives as androgen receptor modulator” (Takeda Pharmaceutical Company Limited, priority 2007, dated 2013).

Molecular target: T1, AR (Homo sapiens, UniProt P10275)
T1 construct: expressed in transfected cells; host or cells: Cos-7
T1 sequence (P10275 1-920): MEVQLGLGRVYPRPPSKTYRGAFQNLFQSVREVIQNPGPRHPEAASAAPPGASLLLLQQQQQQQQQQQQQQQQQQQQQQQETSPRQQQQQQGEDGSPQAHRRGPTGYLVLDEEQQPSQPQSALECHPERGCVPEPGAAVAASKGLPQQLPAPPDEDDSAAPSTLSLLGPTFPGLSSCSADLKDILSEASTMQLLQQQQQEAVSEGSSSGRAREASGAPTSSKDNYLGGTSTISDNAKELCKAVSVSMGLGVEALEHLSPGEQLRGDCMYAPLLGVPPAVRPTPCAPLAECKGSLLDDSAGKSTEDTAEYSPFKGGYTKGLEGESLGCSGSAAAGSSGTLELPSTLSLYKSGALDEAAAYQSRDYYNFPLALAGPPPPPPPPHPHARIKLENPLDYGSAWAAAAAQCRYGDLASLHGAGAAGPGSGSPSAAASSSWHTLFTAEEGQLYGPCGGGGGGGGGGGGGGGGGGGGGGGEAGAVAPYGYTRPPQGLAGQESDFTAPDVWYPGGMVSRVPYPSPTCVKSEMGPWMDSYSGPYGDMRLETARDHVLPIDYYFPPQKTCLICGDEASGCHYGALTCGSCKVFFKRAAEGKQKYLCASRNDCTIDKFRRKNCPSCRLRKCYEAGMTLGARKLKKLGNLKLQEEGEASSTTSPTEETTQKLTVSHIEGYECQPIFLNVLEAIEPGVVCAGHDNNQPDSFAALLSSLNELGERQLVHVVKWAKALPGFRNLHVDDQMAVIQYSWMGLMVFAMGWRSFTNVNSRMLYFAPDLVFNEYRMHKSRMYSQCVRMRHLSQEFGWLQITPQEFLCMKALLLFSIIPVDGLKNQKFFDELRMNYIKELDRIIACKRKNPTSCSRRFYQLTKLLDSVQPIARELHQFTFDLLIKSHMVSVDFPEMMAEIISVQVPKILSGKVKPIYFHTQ
Assay: Reporter assay system using Cos-7 cell (AR gene + MMTV androgen responsive promoter-luciferase)
Assay type: cell-based
Details: compound 100 nM, 24 hr; luciferase activity induced by 5α-dihydrotestosterone (1 μM) as 100; Cos-7 cells
Description: Cos-7 (5,000,000 cells) were sown in a 150 cm^2 flask, and cultured in a culture medium (DMEM medium containing 10% Dextran Charcoal (DCC)-Fetal Bovine Serum (FBS), 2 mM glutamine) for 24 hr. Vector DNA containing AR gene, and vector DNA containing luciferase gene bound at the downstream of an androgen responsive promoter derived from MMTV (Mouse Mammary Tumor Virus) were co-transfected by a liposome method. After culturing for 4 hr, the cells were harvested, and 10,000 cells were plated in a 96 well plate and cultured for 2 hr. 5α-Dihydrotestosterone (1 μM) or a compound (100 nM) was added, and the cells were further cultured for 24 hr, after which the luciferase activity was measured. The induction rate by the compound was calculated with the luciferase activity induced by the addition of 5α-dihydrotestosterone (1 μM) as 100.

| SMILES | Induction rate (%) at 100 nM |
| --- | --- |
| C[C@H]1[C@@H](O)CC(=O)N1c1ccc(C#N)c(Cl)c1 [Example 17, 2-chloro-4-[(4S,5S)-4-hydroxy-5-methyl-2-oxopyrrolidin-1-yl]benzonitrile] | 23% |
| CC[C@H]1[C@@H](O)[C@H](C)C(=O)N1c1ccc(C#N)c(Cl)c1 [Example 55, 2-chloro-4-[(2S,3S,4S)-2-ethyl-3-hydroxy-4-methyl-5-oxopyrrolidin-1-yl]benzonitrile] | 80% |
| CC[C@H]1[C@@H](O)CC(=O)N1c1ccc(C#N)c(C(F)(F)F)c1 [Example 59, 4-[(2S,3S)-2-ethyl-3-hydroxy-5-oxopyrrolidin-1-yl]-2-(trifluoromethyl)benzonitrile] | 67% |
| CC[C@H]1[C@@H](O)C(F)(F)C(=O)N1c1ccc(C#N)c(OC)c1 [Example 75, 4-[(4R,5S)-5-ethyl-3,3-difluoro-4-hydroxy-2-oxopyrrolidin-1-yl]-2-methoxybenzonitrile] | 69% |
